Columns and labels:
RAW 264.7 cells [1] = experiment: Measurement of NO production via nitrite detection (Griess reagents) in IFN-γ and LPS activated macrophages; assay type: cell-based, mouse; settings: for effect on NO production (in words): activated RAW 264.7 cells
Method: (§1) Cell culture. NIH/3T3 (mouse embryo fibroblast, CCRC 60008) and RAW 264.7 (mouse monocyte/macrophage, CCRC 60001) cell lines were obtained from Culture Collection and Research Center (CCRC), Taiwan. Both cell lines were cultured in Dulbecco's modified essential medium (DMEM, GIBCO BRL, Rockville, MD) containing 1.5 g/L NaHCO3 supplemented with 10% fetal bovine serum (Hyclone, Logan, UT) and incubated in 5% CO2 at 37°C. Cell cultures were examined for mycoplasma contamination with the fluorescent stain Hoechst 33258 (Hay et al., ATCC Quality Control Methods for Cell Lines, American Type Culture Collection, Manassas, VA, 1992, pp 23-33). All cultures described in the present example were mycoplasma-free.
Collagen/chitin-coated wells. Two mixtures were prepared. A mixture of collagen type I (rat tail, Sigma, St. Louis, MO) was dissolved in 0.1 N acetic acid to produce a 1 mg/ml collagen solution. Chitin was added to 0.1 N acetic acid until a 1 mg/ml mixture was achieved, and the mixture was sonicated for 3 minutes using a Labsonic U sonicator, (Braun Biotech International, Germany). After being autoclaved at 121°C for 15 minutes, the chitin mixture became a slurry of fine wires. Microtiter tissue culture plates (96-well) were rinsed with Dulbecco's phosphate-buffer saline without Ca^+2 and Mg^+2 (D-PBS, GIBCO BRL). Five microliters of collagen solution or different amounts of the chitin mixture were then added to each well. The plates were then air-dried in a laminar flow hood and stored at 4°C for up to a week.
Measurement of NO production via nitrite detection. Nitric oxide (NO) production was indirectly quantified by measuring the accumulation of nitrite (NO2^-) in the culture media using Griess reagents and sodium nitrite as a standard (Green et al., Anal. Biochem. 126:131-138, 1982; and Ignarro et al., Proc. Natl. Acad. Sci. USA 90:8103-8107, 1993). For nitrite assays, RAW 264.7 cells were subcultured in coated 96-well tissue culture plates at 1 x 10^5 cells/well and incubated for 24 hours. The culture media were changed to phenol red-free, serum-free DMEM containing 100 U/ml interferon-γ (IFN-γ, recombinant murine; GIBCO BRL) and 100 ng/ml lipopolysaccharide (LPS, Escherichia coli serotype O128:B12; Sigma). The samples were then tested as described in Rollo et al., J. Leukoc. Biol. 60:397-404, 1996.
To measure the effect of chitin on NO production, cells were subcultured directly in the chitin-coated 96-well tissue culture plates. After overnight incubation, cells became adhered to the bottom of chitin-coated wells. The culture media were removed and replaced with media supplemented with IFN-γ and LPS as described above. After 48 hours incubation, […] of culture supernatants were mixed sequentially with equal volumes of 60 mM sulfanilamide (Sigma) in 3 N HCl and 4 mM N-1-naphthylethylenediamine (Sigma) and then shaken for 5 minutes at room temperature as described in Rollo et al., supra. Nitrite concentration was measured by reading the sample's absorbance at 540 nm using a microplate reader (MRX, Dynex Technologies, Inc., VA).

RAW 264.7 cells [2] = experiment: Cytotoxicity test (MTT dye), RAW 264.7; assay type: cell-based, mouse
Method: as §1
Collagen/chitin-coated wells. Two mixtures were prepared. A mixture of collagen type I (rat tail, Sigma, St. Louis, MO) was dissolved in 0.1 N acetic acid to produce a 1 mg/ml collagen solution. […]
Cytotoxicity test. […] Cytotoxicity was measured using the dye 3-(4,5-dimethylthiazol-2-yl)-2,5-diphenyl tetrazolium bromide (MTT; Merck Co., Germany) and following the methods described in Mosmann, J. Immunol. […]
The cytotoxicity associated with chitin and chitosan was evaluated for both mouse embryonic fibroblast NIH/3T3 cells and mouse monocyte-macrophage RAW 264.7 cells. […]

[3] = 2 µg/ml in culture medium, activated RAW 264.7
[4] = 10 µg/ml in culture medium, activated RAW 264.7
[5] = 10 µg/ml in culture medium, activated RAW 264.7, 2880 min
[6] = Mus musculus, RAW264.7, 48 h, 10 µg/ml in culture medium, activated RAW 264.7, read-out: Nitrite Production as Percentage of Control

Molecule | Nitrite Production (RAW 264.7 cells [1]; [3]) [µM] | Nitrite Production as Percentage of Control (RAW 264.7 cells [1]; [3]) | Nitrite Production (RAW 264.7 cells [1]; [4]) [µM] | Nitrite Production as Percentage of Control (RAW 264.7 cells [1]; [5]) | activity at 10 µg/mL (RAW 264.7 cells [1]; [6]) [%] | cytotoxicity (RAW 264.7 cells [2]) | effect on NO production (in words) (RAW 264.7 cells [1]) | activity at 2 µg/mL (RAW 264.7 cells [1]; Mus musculus, RAW264.7, 48 h, 2 µg/ml in culture medium, activated RAW 264.7, read-out: Nitrite Production as Percentage of Control) [%]
chitotriose | 61.5 ± 0.9 | 93.8 Percentage of Control | 61.1 ± 0.2 | 93.1 Percentage of Control |  |  |  | 
N[C@H]1C(O)O[C@H](CO)[C@@H](O)[C@@H]1O (stereo partly shown) [glucoseamine, glucosamine, reference compound] |  |  | 64.3 ± 0.8 |  | 98 | not cytotoxic |  | 
chitohexose | 41.3 ± 0.8 | 63 Percentage of Control | 35.8 ± 2.9 | 54.5 Percentage of Control |  |  | did substantially decrease NO production | 
CC(=O)N[C@H]1C(O)O[C@H](CO)[C@@H](O)[C@@H]1O (stereo partly shown) [NAGA, N-acetylglucosamine, reference compound] |  |  | 66.7 ± 0.9 |  | 102 | not cytotoxic |  | 
chitopentose | 47.0 ± 0.5 | 70.6 Percentage of Control | 42.7 ± 1.2 | 65.1 Percentage of Control |  |  | did substantially decrease NO production | 
CC(=O)N[C@H]1[C@H](O[C@H]2[C@H](O)[C@@H](NC(C)=O)C(O)O[C@@H]2CO)O[C@H](CO)[C@@H](O)[C@@H]1O (stereo partly drawn) [chitobiose, 2-acetamido-2-deoxy-4-O-(2-acetamido-2-deoxy-b-D-glucopyranosyl)-D-glucopyranose] | 64.9 ± 0.8 |  | 64.1 ± 0.9 |  | 97.7 |  |  | 98.9
chitotetraose | 63.4 ± 0.5 | 96.6 Percentage of Control | 61.3 ± 0.6 | 93.4 Percentage of Control |  |  |  | 
